Structures are written as SMILES. A value given as a limit tells only on which side of the number the result lay.

For assay [1], the target named is T1, Adrenergic receptor alpha-1 (Rattus norvegicus, UniProt P15823+P23944+P43140).
T1 sequence (P15823 whole entry): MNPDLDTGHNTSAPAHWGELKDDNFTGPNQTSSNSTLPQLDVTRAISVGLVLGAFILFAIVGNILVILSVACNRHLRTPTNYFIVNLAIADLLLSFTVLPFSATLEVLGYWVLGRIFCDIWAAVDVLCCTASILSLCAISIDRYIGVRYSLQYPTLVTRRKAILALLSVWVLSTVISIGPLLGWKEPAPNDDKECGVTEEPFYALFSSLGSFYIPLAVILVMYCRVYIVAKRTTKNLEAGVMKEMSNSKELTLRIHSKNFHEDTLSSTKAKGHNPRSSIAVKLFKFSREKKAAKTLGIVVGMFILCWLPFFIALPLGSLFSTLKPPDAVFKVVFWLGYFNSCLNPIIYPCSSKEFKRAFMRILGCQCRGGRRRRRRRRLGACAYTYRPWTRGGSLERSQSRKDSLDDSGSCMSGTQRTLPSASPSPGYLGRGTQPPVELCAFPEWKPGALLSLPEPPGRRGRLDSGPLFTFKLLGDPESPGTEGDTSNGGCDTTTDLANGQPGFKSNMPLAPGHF
T1 sequence (P23944 whole entry): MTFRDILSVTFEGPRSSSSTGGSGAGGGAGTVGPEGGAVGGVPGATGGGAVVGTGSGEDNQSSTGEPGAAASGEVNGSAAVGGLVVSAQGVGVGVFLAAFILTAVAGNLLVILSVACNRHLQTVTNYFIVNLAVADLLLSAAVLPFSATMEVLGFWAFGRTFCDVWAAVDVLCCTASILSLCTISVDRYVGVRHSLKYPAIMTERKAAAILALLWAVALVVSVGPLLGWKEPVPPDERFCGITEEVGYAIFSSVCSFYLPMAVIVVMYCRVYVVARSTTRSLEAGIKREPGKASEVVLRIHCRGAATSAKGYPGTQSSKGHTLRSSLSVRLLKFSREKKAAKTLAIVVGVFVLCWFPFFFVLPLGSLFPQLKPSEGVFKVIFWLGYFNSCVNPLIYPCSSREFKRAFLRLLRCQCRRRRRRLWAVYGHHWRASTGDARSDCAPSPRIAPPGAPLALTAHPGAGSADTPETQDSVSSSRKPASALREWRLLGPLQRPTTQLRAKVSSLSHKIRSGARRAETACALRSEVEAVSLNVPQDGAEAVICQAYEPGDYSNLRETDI
T1 sequence (P43140 whole entry): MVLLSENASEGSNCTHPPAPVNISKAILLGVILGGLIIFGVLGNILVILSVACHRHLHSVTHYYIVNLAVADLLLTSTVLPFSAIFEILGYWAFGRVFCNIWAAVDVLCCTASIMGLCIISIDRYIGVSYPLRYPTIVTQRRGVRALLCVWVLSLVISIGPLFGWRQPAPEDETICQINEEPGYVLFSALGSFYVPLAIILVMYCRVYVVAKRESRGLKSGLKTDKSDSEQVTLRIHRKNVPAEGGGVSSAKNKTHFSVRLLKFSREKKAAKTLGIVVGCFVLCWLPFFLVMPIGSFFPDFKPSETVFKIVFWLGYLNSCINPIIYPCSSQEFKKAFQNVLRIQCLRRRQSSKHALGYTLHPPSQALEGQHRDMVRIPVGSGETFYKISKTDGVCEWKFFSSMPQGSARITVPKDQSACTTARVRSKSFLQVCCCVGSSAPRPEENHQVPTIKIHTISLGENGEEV
Description: Binding affinity to rat alpha1 adrenergic receptor.

Assay [2] deals with 5-hydroxytryptamine receptor 6 (Homo sapiens, UniProt P50406). As to the kind of experiment: Agonist activity at 5-HT6 receptor (unknown origin).
Assay [3] has as its target 5-hydroxytryptamine receptor 7 (Homo sapiens, UniProt P34969). Description: Binding affinity to 5-HT7 receptor (unknown origin).
A short description of assay [4]: Selectivity ratio of Ki for 5-HT2B receptor (unknown origin) to Ki for rat 5-HT6 receptor.
A short description of assay [5]: Selectivity ratio of Ki for 5-HT7 receptor (unknown origin) to Ki for rat 5-HT6 receptor.
The target in assay [6] is 5-hydroxytryptamine receptor 6 (Rattus norvegicus, UniProt P31388). Description: Displacement of [3H] lysergic acid diethylamide from rat 5-HT6 receptor transfected in HEK293 cells after 60 mins by scintillation counter. The format is cell-based. A general note: Displacement assays read how much labelled ligand stays bound in the presence of the test substance.
The target of assay [7] is T2, Adrenergic receptor alpha-2 (Homo sapiens, UniProt P08913+P18825+P18089).
T2 sequence (P08913 whole entry): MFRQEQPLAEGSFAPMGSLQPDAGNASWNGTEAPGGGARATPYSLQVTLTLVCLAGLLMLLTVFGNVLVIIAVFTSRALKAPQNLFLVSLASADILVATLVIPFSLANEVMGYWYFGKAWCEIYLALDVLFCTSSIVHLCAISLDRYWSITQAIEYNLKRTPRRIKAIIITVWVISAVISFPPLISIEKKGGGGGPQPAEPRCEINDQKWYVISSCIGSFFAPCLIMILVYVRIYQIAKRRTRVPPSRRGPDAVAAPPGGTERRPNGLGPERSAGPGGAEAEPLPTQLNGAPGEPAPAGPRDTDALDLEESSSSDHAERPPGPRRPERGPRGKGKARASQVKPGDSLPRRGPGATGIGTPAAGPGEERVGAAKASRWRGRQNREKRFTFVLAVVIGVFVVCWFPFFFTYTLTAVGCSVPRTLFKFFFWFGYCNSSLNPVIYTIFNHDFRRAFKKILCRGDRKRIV
T2 sequence (P18825 whole entry): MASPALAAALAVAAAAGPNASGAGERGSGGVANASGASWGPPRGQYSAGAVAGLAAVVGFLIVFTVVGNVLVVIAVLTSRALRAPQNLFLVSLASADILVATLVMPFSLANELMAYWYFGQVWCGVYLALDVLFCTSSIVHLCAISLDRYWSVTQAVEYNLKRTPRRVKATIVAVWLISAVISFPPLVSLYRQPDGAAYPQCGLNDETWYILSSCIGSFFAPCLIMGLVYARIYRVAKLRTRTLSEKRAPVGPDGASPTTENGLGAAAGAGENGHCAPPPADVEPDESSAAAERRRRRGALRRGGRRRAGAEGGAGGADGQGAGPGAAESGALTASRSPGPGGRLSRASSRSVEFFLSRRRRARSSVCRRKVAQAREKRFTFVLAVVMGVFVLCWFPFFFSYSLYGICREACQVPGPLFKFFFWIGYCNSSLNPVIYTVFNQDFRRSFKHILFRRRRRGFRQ
T2 sequence (P18089 whole entry): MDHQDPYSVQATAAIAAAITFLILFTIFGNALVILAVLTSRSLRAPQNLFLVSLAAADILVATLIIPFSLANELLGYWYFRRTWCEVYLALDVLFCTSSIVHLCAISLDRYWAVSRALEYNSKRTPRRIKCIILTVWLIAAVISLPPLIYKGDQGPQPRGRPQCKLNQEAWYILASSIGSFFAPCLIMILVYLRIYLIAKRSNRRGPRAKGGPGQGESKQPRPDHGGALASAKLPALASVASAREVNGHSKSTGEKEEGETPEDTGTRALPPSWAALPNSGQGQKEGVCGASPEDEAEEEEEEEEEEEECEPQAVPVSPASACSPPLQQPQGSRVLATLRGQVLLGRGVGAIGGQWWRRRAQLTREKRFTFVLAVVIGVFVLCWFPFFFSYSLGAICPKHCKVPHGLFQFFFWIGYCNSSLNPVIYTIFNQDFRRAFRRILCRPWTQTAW
As to the kind of experiment: Binding affinity to human recombinant alpha2 adrenergic receptor. The format is protein assay.

Assay [8] concerns the target T3, Adrenergic receptor alpha-2 (Rattus norvegicus, UniProt P22086+P19328+P22909).
T3 sequence (P22086 whole entry): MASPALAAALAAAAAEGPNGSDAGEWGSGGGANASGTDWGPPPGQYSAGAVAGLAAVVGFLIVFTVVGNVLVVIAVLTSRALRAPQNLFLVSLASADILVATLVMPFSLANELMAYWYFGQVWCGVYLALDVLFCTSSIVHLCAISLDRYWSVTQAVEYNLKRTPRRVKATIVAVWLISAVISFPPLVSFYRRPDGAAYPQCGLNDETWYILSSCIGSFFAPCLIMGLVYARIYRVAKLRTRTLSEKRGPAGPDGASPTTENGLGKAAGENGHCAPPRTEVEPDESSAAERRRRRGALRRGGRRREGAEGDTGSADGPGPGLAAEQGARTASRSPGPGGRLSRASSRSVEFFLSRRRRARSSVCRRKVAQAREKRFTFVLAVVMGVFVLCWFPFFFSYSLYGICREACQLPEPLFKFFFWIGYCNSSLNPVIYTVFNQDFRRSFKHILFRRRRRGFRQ
T3 sequence (P19328 whole entry): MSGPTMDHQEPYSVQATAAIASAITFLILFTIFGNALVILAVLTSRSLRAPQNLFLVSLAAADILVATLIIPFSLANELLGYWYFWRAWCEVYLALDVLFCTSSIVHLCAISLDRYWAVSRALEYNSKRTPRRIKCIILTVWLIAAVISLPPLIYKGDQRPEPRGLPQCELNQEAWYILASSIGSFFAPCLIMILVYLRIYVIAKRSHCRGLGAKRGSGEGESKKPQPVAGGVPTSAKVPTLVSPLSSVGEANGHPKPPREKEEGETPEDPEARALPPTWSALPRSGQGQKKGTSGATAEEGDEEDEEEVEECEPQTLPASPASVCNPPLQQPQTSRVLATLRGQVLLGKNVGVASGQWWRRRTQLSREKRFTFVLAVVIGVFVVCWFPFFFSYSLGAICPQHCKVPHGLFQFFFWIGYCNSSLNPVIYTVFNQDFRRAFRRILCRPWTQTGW
T3 sequence (P22909 whole entry): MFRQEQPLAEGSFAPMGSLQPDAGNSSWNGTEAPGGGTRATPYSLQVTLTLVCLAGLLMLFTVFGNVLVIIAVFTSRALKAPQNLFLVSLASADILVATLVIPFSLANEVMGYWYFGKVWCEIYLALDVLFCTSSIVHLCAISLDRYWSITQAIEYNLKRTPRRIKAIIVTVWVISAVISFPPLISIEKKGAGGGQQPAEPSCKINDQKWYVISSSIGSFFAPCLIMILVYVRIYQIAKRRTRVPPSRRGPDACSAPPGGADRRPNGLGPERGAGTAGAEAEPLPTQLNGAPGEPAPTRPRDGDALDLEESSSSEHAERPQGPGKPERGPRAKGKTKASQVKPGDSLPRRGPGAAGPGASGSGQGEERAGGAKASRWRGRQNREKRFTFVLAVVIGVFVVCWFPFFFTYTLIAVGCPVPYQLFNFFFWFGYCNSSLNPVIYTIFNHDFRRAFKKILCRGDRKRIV
Description: Binding affinity to rat alpha2 adrenergic receptor.

In assay [9] the target is 5-hydroxytryptamine receptor 2B (Homo sapiens, UniProt P41595). As to the kind of experiment: Binding affinity to 5-HT2B receptor (unknown origin).
The species named for assay [10] is Homo sapiens. As to the kind of experiment: Selectivity ratio of Ki for human 5-HT1F receptor to Ki for human 5-HT6 receptor.
The species entered for assay [11] is Homo sapiens. Description: Selectivity ratio of Ki for human 5-HT7 receptor to Ki for human 5-HT6 receptor.
The species entered for assay [12] is Homo sapiens. Description: Selectivity ratio of Ki for human 5-HT1B receptor to Ki for human 5-HT6 receptor.
The species entered for assay [13] is Homo sapiens. As to the kind of experiment: Selectivity ratio of Ki for human 5-HT1A receptor to Ki for human 5-HT6 receptor.
For assay [14], the species on record is Homo sapiens. As to the kind of experiment: Selectivity ratio of Ki for human 5-HT5A receptor to Ki for human 5-HT6 receptor.
Assay [15] is filed under the species Homo sapiens. Description: Selectivity ratio of Ki for human 5-HT1D receptor to Ki for human 5-HT6 receptor.

5-hydroxytryptamine receptor 7, sequence (P34969 whole entry): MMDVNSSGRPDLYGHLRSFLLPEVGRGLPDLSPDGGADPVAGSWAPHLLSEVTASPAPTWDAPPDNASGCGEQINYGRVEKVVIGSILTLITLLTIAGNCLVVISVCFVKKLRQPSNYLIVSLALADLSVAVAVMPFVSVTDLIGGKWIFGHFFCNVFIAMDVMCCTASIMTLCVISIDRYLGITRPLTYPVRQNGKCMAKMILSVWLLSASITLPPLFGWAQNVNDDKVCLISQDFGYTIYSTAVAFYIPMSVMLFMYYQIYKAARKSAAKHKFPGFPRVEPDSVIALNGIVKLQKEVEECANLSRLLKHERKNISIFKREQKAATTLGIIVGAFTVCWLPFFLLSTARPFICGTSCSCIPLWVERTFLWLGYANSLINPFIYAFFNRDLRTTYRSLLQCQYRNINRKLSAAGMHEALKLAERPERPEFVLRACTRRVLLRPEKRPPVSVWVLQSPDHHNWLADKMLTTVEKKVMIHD
5-hydroxytryptamine receptor 2B, sequence (P41595 whole entry): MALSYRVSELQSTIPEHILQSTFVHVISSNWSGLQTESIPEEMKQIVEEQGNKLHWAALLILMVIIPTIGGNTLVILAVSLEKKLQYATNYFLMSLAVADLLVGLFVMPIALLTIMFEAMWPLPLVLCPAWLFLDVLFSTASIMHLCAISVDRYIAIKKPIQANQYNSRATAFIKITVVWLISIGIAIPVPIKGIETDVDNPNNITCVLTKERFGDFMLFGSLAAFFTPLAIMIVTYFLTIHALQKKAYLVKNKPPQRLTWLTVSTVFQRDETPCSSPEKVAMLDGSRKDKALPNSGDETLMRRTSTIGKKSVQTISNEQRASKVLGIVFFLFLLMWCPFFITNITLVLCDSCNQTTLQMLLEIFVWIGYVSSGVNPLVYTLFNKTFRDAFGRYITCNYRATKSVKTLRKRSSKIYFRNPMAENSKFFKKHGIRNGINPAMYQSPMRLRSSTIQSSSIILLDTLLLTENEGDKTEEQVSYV
5-hydroxytryptamine receptor 6 (Rattus norvegicus, UniProt P31388), sequence (P31388 whole entry): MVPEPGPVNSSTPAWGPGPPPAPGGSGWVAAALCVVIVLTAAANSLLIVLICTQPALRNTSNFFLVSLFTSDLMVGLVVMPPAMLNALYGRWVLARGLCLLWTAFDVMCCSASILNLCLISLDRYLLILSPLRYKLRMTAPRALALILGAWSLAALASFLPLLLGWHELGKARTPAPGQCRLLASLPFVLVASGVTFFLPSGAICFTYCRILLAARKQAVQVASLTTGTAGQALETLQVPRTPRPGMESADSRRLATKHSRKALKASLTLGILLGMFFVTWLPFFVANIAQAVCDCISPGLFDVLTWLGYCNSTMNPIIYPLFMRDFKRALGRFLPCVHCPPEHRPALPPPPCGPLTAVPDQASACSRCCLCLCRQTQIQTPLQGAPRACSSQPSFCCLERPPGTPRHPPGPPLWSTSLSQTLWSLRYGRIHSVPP
5-hydroxytryptamine receptor 6 (Homo sapiens, UniProt P50406), sequence (P50406 whole entry): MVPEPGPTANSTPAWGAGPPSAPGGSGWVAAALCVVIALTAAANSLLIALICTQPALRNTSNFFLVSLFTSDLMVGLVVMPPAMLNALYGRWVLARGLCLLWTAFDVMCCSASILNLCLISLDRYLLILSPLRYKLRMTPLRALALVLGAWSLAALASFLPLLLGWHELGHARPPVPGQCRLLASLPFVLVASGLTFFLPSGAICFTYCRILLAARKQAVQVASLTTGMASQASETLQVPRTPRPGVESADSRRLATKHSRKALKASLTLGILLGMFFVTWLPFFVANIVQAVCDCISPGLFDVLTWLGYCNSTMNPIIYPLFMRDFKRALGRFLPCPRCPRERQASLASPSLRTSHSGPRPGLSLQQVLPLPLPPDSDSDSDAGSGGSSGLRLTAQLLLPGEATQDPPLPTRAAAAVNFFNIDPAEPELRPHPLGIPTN

Regarding `Cc1[nH]c2ccc(Cl)cc2c1CCN(C)C`, the Ki (commonly a measure of affinity in units of concentration, obtained from inhibition or displacement) was determined as 300 nM in assay [1]; 290 nM in [3]; 28.8 nM in [6]; 300 nM in [7]; 300 nM in [8]; 245 nM in assay [9]. Also, the EC50 (usually the concentration needed to bring the measured effect to its halfway point) in assay [2] was found to be 44.8 nM. For the same molecule, the Ratio Ki in assay [4] was determined as 8; in [5] it was 10.

As to `CN(C)CCc1cn(S(=O)(=O)c2ccccc2)c2ccccc12`, the Ratio Ki in assay [10], in assay [11], in [12], in [13], in [14] and in [15] was more than 100 throughout.

The record behind these values is ChEMBL document CHEMBL3621167, “Therapeutic Potential of 5-HT6 Receptor Agonists” (J Med Chem, 2015).
